# Tested on: ascitic form of Gardner lymphosarcoma (IP-LsG)
# Assay: anti-cancer screening in mice with ascitic Gardner lymphosarcoma
# Type: in vivo
# Conditions: for weight coefficient (weight loss in comparison with the control group): one week after the start of the therapy
# Procedure: The red colorant isolated under the above-described conditions and having the above-mentioned characteristics was subjected to a screening study for anti-cancer properties.
# The tested substance was administered to mice suffering from the ascitic form of Gardner lymphosarcoma (IP-LsG). 6-(2-(2-hydroxyethyl)aminoethyl)-5,11-dioxo-5,6-dihydro-11H-indeno[1,2-c]isoquinoline hydrochloride having the summary formula C20H18N2O3.HCl was used as a reference substance.
# Female C3H mice weighing 26.1 to 27.3 g were used. The animals were kept in plastic containers and fed with the NOE diet made by RATIO, s.r.o., Breclav, Czech Republic, and with potable water ad libitum. The temperature in the room was maintained, the relative humidity was 60%, and the light regimen was not regulated.
# The Gardner lymphosarcoma is maintained in the ascitic form in the C3H mice by inoculating ascitic cells removed a week after the previous inoculation by puncturing the abdominal cavity. The mice are administered with 0.2 ml of the ascites diluted with an isotonic solution of sodium chloride for injections intraperitoneally 10 to 20 times. The cell material for tests is obtained by puncturing the abdominal cavity on the seventh day following inoculation. For the therapeutic test, the inoculation with the ascites diluted with an isotonic solution of sodium chloride for injections was made by administering 10^7 cells in a volume of 0.2 ml i.p. to each animal.
# The C3H mice were over 6 weeks old, weighing 26.1 to 27.3 g, in groups of 10 animals, the control was-common. Two dosage groups were used for each route of administration and for one substance tested.
# The dosage levels: 200 and 100 mg/kg×5 p.o. and 100 and 50 mg/kg×5 s.c. in a volume 0.2 to 0.4 ml and 0.2 to 0.4 ml p.o. (reference substance), resp. for 20 g body weight. Frequency of administration: 1× daily beginning on the first day. The tested substance was administered in a continuous pattern on the 1st to 5th days in doses given in Table 1 and the reference substance was administered p.o. once on the 1st day.
# After the administration was finished, the animals were left for monitoring the survival time. The dose dependence of the survival time was evaluated in comparison with the non-administered control. Time as a biological response was currently evaluated by means of the non-parametric test according to Hájek (Fabián V.: Základní statistické metody (“Basic Statistical Methods”), NCSAV, Prague 1963).
# After the experiment was complete, time in case of point estimates was evaluated using the test of identity of two means (Student t-test) under the presumption of logarithmic-normal distribution of time values and under the presumption of various unknown variances (Roth Z., Josífko M., Malý V., Trcka V.: Statistické metody v experimentální medicíne (“Statistical Methods in Experimental Medicine”); p. 278, SZN, Prague 1962). Geometrical averages were calculated from the individual values of time to death. The differences In average values in which the value of the test criterion has exceeded the critical value for the significance level of 5% were designated as statistically significant.
# [1] = 100 mg/kg p.o. once on the 1st day
# [2] = 200 mg/kg p.o. once on the 1st day
smiles,measurement,setting,value
"Cl.O=C1c2ccccc2-c2c1c1ccccc1c(=O)n2CCNCCO [reference, 6-(2-(2-hydroxyethyl)aminoethyl)-5,11-dioxo-5,6-dihydro-11H-indeno[1,2-c]isoquinoline hydrochloride]",median of time to death,[1],>48.5 days
same,survival LTS (number of animals surviving on day 65),[1],5/10
same,weight coefficient (weight loss in comparison with the control group),[1],−6.67%
same,median of time to death,[2],>65.0 days
same,survival LTS (number of animals surviving on day 65),[2],10/10
same,weight coefficient (weight loss in comparison with the control group),[2],−14.63%
